Assay results published in patent US20250082656A1, “DOSAGE REGIMENS FOR TREATMENT OF DENGUE INFECTION” (Atea Pharmaceuticals, Inc., priority 2022, published 2025).
Where two headings read alike, the source gives them in different places.

Tests used:
Dengue-2 (DENV-2) = experiment: Neutral red assay of virus-induced CPE, DENV-2; assay type: cell-based; settings: DENV2, DENV-2 New Guinea C (NGC), Huh-7, neutral red (NR) assay
DENV-2 = experiment: CPE (MTT) assay, DENV-2 in human PBMCs and BHK-21 cells; assay type: cell-based, Dengue virus
Usutu = experiment: microbe, parasite or virus in culture; assay type: cell-based; settings: TC-508, Huh-7, VYR assay
[1] = Cytotoxicity in H1-HeLa cells; assay type: cell-based; settings: human, Table 2, H1-HeLa
Description: (§1) To assess the antiviral specificity of Compound 1 (AT-281), serial dilutions were incubated with various host cell lines infected with a panel of DNA and RNA viruses other than flaviviruses. The activity of Compound 1 (AT-281) was measured in infected cells using the neutral red assay to determine the effective concentration required to inhibit viral replication 50% (EC50) (described in Example 3) and the threshold concentration required to obtain a perceptible effect on 50% of the cells incubated without virus (CC50). Compound 1 (AT-281) had no activity against the DNA viruses tested and was only weakly or not active against several RNA viruses (Table 2).

[2] = Cytotoxicity in Vero cells; assay type: cell-based; settings: African green monkey, Table 2, Vero, parallel to the virus of the line
Description: as §1

[3] = Plasma PK after single oral dose of AT-752, rats; assay type: in vivo, SD rats; settings: Rat, single oral AT-752 300 mg/kg
Description: Male SD rats were administered 300 mg/kg Compound 2 (AT-752). Blood samples were collected up to 24 hrs. post dose, plasma separated and analyzed for Compound 1 (AT-281), Compound 3 (AT-551), and Compound 6 (AT-273) by LC-MS/MS. Data are express as mean+/−SD (n=3-5/time point). The x-axis is time post the dose measured in hours and the y-axis is the plasma concentration of the metabolites measured in nanomoles/mL). The experimental procedure is provided in Example 14.
Male naïve SD rats (Beijing Vital River Laboratory Animals Co. Ltd., China) were administered a dose of AT-752 at 300 mg/kg in 40% PEG400, 10% solutol HS15, 50% 100 mM citrate buffer, pH 4.5 (v/v) by oral gavage. Blood samples (n=4) were collected at 1, 2, 4, 8, 12 and 24 h post-dose, plasma separated and stored at −70° C. […] For PBMCs, nine male naïve SD rats were administered a dose of Compound 2 (AT-752) (at a Compound 1 (AT-281) equivalent dose of 300 mg/kg) by oral gavage.
Pharmacokinetic measurements for FIGS. 11, 12, 13, 14, and 15 were analyzed using LC-MS/MS according to the protocol described herein. Plasma samples were prepared for MS analysis by adding internal standards and extracting with 20 volumes chilled ACN. After vortex (800 rpm for 10 min) and centrifugation (4,000 rpm, 15 min, 4° C.), the supernatants (25 μL) were diluted with an equal volume of H2O, mixed and spun again. After adding internal standards, the PBMC samples (10^6 cells) were lyzed with 300 μL MeOH/H2O (70:30, v/v) and 40 mM dibutylammonium acetate (DBAA), mixed by vortex and centrifuged (12,000 rpm, 15 min, 4° C.). Aliquots of the supernatants (35 μL) were dried under nitrogen and reconstituted in H2O, then mixed and spun again. […] A binary nonlinear gradient with mobile phases A (0.1% formic acid in water) and B (0.1% formic acid in ACN) were used to elute samples at 0.8 mL/min, with a run time of 5 min. […] A binary nonlinear gradient with mobile phases A (0.001% NHr H2O, 0.18 mM DBAA in H2O) and B (10 mM N,N-dimethyl-hexylamine, 3 mM NH4OAc in ACN/H2O (50.50, v/v)) were used to elute samples at 0.5 mL/min, with a run time of 3 min. Standards in 50% MeOH were used for calibration. […] Internal standards (ISS) as described previously (Good et al., Preclinical evaluation of AT-527, a novel guanosine nucleotide prodrug with potent, pan-genotypic activity against hepatitis C virus. PLos One 15:e02271045) were used to correct for variations in recovery.
Data analysis of the pharmacokinetic data generated according to Example 21 and presented in FIGS. 11, 12, 13, 14, and 15 was analyzed according to the procedure described herein. Plasma concentrations of Compound 1 (AT-281), Compound 3 (AT-551) and Compound 6 (AT-273) were subjected to non-compartmental pharmacokinetic analysis using Phoenix WinNonlin software (version 6.3 or above, Pharsight, Mountain View, CA). The linear/log trapezoidal rule was applied in obtaining the PK parameters.

Dengue serotype 4 = experiment: In vitro antiviral potency, summary over strains, Dengue serotype 4; assay type: cell-based; settings: Dengue virus
[4] = for Tmax / AUCtau / Cmax: steady-state, human plasma; for Tmax: median (minimum-maximum); for AUCtau / Cmax: mean±SD
DENV-3 = experiment: microbe, parasite or virus in culture; settings: Dengue virus, DENV3, Huh-7
[5] = test system: NS5 RNA dependent RNA polymerase (RdRp); experiment: Competitive nucleotide incorporation assays, all four DENV serotypes (summary); assay type: biochemical, Dengue virus; settings: approximately
Description: As described in Example 10 and shown in FIG. 1, the active metabolite of Compound 2 or Compound 1 (Compound 5) acts as a GTP analog and is incorporated into RNA by the NS5 RNA dependent RNA polymerase (RdRp), immediately terminating synthesis.
The chain-terminating efficiency of Compound 5 was measured in competitive nucleotide incorporation assays using all four DENV serotypes. […] In comparison, sofosbuvir triphosphate is incorporated into the RNA less than 1 time for every 100 UTP (native uridine triphosphate) incorporations.

[6] = 10 μM Compound 1 for 6 h, peak at 10 h after initiation of exposure
DENV2 NS5 = DENV2 NS5 (Dengue virus type 2, UniProt P14340); experiment: Thermal shift assay, DENV2 NS5; settings: read-out: ΔTM
DENV4 RdRp domain = experiment: Thermal shift assay, DENV4 RdRp domain; settings: RdRp domain DENV4, 100 μM compound
DENV1 MTase domain = DENV1 MTase domain (Dengue virus type 1, UniProt P17763); experiment: Thermal shift assay, DENV1 MTase domain; settings: read-out: ΔTM
DENV1 MTase domain, sequence (P17763 2495-2756): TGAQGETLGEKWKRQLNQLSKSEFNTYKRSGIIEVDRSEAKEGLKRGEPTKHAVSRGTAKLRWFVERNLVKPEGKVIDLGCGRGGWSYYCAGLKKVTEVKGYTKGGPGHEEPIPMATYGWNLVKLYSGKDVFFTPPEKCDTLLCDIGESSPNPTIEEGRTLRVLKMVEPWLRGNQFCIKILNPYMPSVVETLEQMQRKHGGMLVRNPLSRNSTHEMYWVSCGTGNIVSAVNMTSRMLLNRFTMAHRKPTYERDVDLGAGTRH

CNc1nc(N)nc2c1ncn2[C@@H]1O[C@H](CO[P@](=O)(N[C@@H](C)C(=O)OC(C)C)Oc2ccccc2)[C@@H](O)[C@@]1(C)F [Compound 1, isopropyl ((R)-(((2R,3R,4R,5R)-5-(2-amino-6-(methylamino)-9H-purin-9-yl)-4-fluoro-3-hydroxy-4-methyltetrahydrofuran-2-yl)methoxy)(phenoxy)phosphoryl)-L-alaninate]
EC50 (Dengue-2 (DENV-2)): 0.48 µM | EC50 (DENV-2; DENV-2 clinical isolate, BHK-21, CPE): 1.05 µM | EC50 (DENV-2; Dengue virus, DENV2, BHK-21, DENV-2 NGC, BHK-21, CPE read-out): 3.82 µM | EC90 (Usutu): 0.72 µM | CC50 [1]: > 100 µM | CC50 [2]: > 100 µM | plasma concentration at 1 h, the earliest time point measured [3]: below the limit of quantitation | EC50 (Dengue serotype 4): < 1.2 µM | Tmax ([4]; Compound 2 750 mg TID): 0.5 (0.5-1.0) h | EC50 (DENV-3): 0.75 µM

C[C@@]1(F)[C@H](O)[C@@H](COP(=O)(O)OP(=O)(O)OP(=O)(O)O)O[C@H]1n1cnc2c(=O)[nH]c(N)nc21 [Compound 5]
GTPs incorporated for one AT-9010 incorporated [5]: 7-8 | mean peak concentration of AT-9010 in PBMCs [6]: 1.88±0.01 pmol/10^6 cells | ΔTm at 100 µM (DENV2 NS5): 6 ± 0.1 °C | ΔTM (DENV4 RdRp domain): 4.1 ± 0.1 °C | ΔTm at 100 µM (DENV1 MTase domain): 3.8 ± 0.1 °C

C[C@@]1(F)[C@H](O)[C@@H](CO)O[C@H]1n1cnc2c(=O)[nH]c(N)nc21 [Compound 6, 2′-fluoro-2′-C-methylguanosine]
AUC0-24 h ([3]; plasma): 22.9 µM·h | Cmax ([3]; plasma): 1300 ± 300 nM | Tmax ([3]; plasma): 8.0 ± 0.0 h | increase of plasma exposure on multiple dosing ([4]; BID): ~60% | increase of plasma exposure on multiple dosing ([4]; QD): approximately 25% | increase of plasma exposure on multiple dosing ([4]; TID): ~80% | AUCtau ([4]; Compound 2 750 mg BID): 2680 ± 730 ng·h/mL | Cmax ([4]; Compound 2 750 mg BID): 288 ± 58 ng/mL | Tmax ([4]; Compound 2 750 mg BID): 3.5 (3.0-4.0) h | AUCtau ([4]; Compound 2 750 mg TID): 2370 ± 743 ng·h/mL | Cmax ([4]; Compound 2 750 mg TID): 330 ± 98 ng/mL | Tmax ([4]; Compound 2 750 mg TID): 3.5 (3.0-6.0) h | AUCtau ([4]; Compound 2 1000 mg QD): 3120 ± 694 ng·h/mL | Cmax ([4]; Compound 2 1000 mg QD): 241 ± 56 ng/mL | Tmax ([4]; Compound 2 1000 mg QD): 4.0 (3.0-4.0) h
